The record followed here is patent US20220259172A1, “CHEMICAL INHIBITORS OF ID PROTEINS FOR THE TREATMENT OF CANCER AND OTHER DISEASES” (Universität Heidelberg, priority 2019, published 2022).

Entries after “also recorded” stand apart in the source; their conditions may differ.

Data set [1] concerns HUVECs. As to the kind of experiment: HUVEC proliferation, CyQUANT assay. In kind it is cell-based, Human. The settings on record: dose-dependent manner (FIG. 11). How it is done: (§1) HUVECs (A) and LECs (B) were cultivated in endothelial cell growth medium. Cells were incubated with the indicated concentrations of X6632. Incubation with DMSO served as a solvent control. After cultivation for the indicated time periods, cells were stained with a CyQUANT™ Cell Proliferation Assay Kit (Thermo Fisher Scientific). The CyQUANT™ dye emits fluorescence after excitation at 485 nm when incorporated in double-stranded DNA, allowing DNA content to be used as a measure of cell numbers. Plates were incubated for 15 min at 37° C. to allow the CyQUANT™ dye to incorporate into DNA. Fluorescence was measured by excitation at 485 nm and detection of emission at 530 nm at 25 positions in each well (signal intensity) using a Tecan Infinite M200 reader.

The subject of data set [2] is Id1. In words: Id1 expression in HUVECs, Western blot. Type of data set: cell-based, Human. On the procedure:
(§2) Human umbilical vein endothelial cells (HUVECs) and lymphatic endothelial cells (LECs) were cultivated in EBM™-2 Endothelial Cell Growth Basal Medium supplemented with EGM™-2 MV Microvascular Endothelial Cell Growth Medium-2 SingleQuots™ Kit (both Lonza, catalogue numbers CC-3156 and CC4176, respectively), hereafter referred to as endothelial cell growth medium. HUVECs and LECs were cultivated in the presence of the indicated concentrations of X6632, or with DMSO as a solvent control. After 24 hours, cells were harvested. Lysates were western blotted and probed with antibodies against Id1 and Id3. Western blots probed with vinculin antibodies served as loading controls.
(§3) Western blot analysis was performed using standard methods. The following antibodies were used for protein detection: Id1 (195-14, CalBioreagents), Id3 (17-3, CalBioreagents), β-actin (AC-15, Sigma Aldrich), Vinculin (VIN-11-5, Sigma Aldrich). Protein bands were detected using HRP conjugated secondary antibodies (P0447, P0448, Agilent Technologies) and enhanced chemiluminescence (32106, Thermo Fisher Scientific).
(§4) The effect of X6632 on Id1 and Id3 expression in cultivated proliferating human umbilical vein endothelial cells (HUVECs) was investigated. […] LDN-193189, an antagonist of BMP receptor isotypes ALK2 and ALK3, served as a positive control reference for inhibition of Id1 and Id3 expression.
On the technique in general: Immunoblotting shows a protein as a band on a membrane.

Data set [3] concerns B16-F10 and Ret cells. As to the kind of experiment: 3D Matrigel assay. Type of data set: cell-based, murine. As to conditions: daily application in 3D Matrigel. How it is done: X8166 inhibits melanoma cell growth in 3D Matrigel. B16-F10 (A) or Ret (B) control or CRISPR/Cas9 Id1/Id3 cells were seeded in 3D Matrigel (10 mg/ml) and grown for six days before analysis. B16-F10 or Ret cells were treated daily with DMSO or X8166 (7.5 μM). The number of colonies at six positions of each well of a 48-well plate were counted in each z-level (5-10 z-levels were imaged per position).
Cells (2×10^3) were mixed with Matrigel to obtain 150 μl of a cell/Matrigel (10 mg/ml, #354262, Corning Inc.) solution, which was seeded into a well of a 48-well plate. The gel was allowed to solidify at 37° C. for 30 min and was subsequently overlaid with 500 μl complete growth medium. After six days of culture, images were captured using a Leica DMI6000 B microscope at six different x/y positions in every well, and a minimum of five horizontal layers (z levels) at each position, in order to get every cell in focus for image analysis. Image analysis was performed using Fiji software as follows: First, images were transformed into 8-bit files (pixel values from 0 (black) to 255 (white)). The scale was set to distance=0, known=0, pixel=1, and unit=pixel global. Outlines of each colony in focus in every image were detected using the integrated semi-automatic magic wand tool. Once outlines were matching the morphology of the colony were obtained, the colony was filled white (pixel value 255) using the fill function. Thresholding of pixel values (threshold=255) allowed black (background) and white (colonies) images of the filled colonies to be obtained. The “Analyze particles” function was applied to measure the area and perimeter of colonies with a minimum pixel size of 1500. An invasive index was calculated as follows: Invasive index=(perimeter)^2/area, resulting in a unitless measure of invasiveness.

Data set [4] has as its system Id1. As to the kind of experiment: Id1 expression in LECs, Western blot. As to conditions: indicated concentrations, 24 hours (FIG. 10B). Type of data set: cell-based. On the procedure:
as §2, §3, §4

Data set [5] concerns LECs. As to the kind of experiment: LEC proliferation, CyQUANT assay. In kind it is cell-based. The settings on record: dose-dependent manner (FIG. 11). How it is done: as §1
For data set [6], the system named is B16-F10 and Ret cells. In words: Proliferation of melanoma cells in 2D culture. In kind it is cell-based, murine.
Data set [7] has as its system B16-F10 melanoma cells. As to the kind of experiment: Tumor growth and initiation in vivo, B16-F10. The arrangement: species or system mice. From the text:
B16-F10 (A) or Ret (B) cells were co-injected with Matrigel into syngeneic mice. […] Numbers indicate the number of animals with a tumor in each group. Bar graphs show the mean tumor volume in each group at the day when the first animal had reached the legal tumor size limit. Kaplan-Meier curves show the percentage of tumor-free animals in percent as a measure for tumor initiation.
Cells were harvested using trypsin/EDTA and washed in PBS. The indicated numbers of living melanoma cells were subcutaneously injected into the flank of syngeneic mice in 100 μl PBS. For co-injection experiments, the indicated number of living cells was resuspended in 100 μl Matrigel HC (10 mg/ml, #354262, Corning Inc.), and subcutaneously injected into the flank. Tumor volume was calculated using the formula 4/3π (d1/2×d2/2×d3/2), where d1−d3 represents the diameter of the tumor in three dimensions. […] All animal experiments were approved by the local authorities, and performed according to the German legal requirements. Tumor initiating cell (TIC) frequency and p-values were calculated using ELDA software.
To investigate the anti-tumor properties of the selected Id1/Id3-inhibiting compounds, groups of experimental mice (8 per group) were injected subcutaneously with B16-F10 or Ret melanoma cells. […] Melanoma initiation and growth was assessed over a period of 90 days.

Data set [8] concerns Id3. In words: Compound screen: BMP4-induced Id3 expression, Western blot. As to conditions: B16-F10 and Ret cells, BMP4 10 ng/ml and compound simultaneously, 24 h, rated relative to CBD. In kind it is cell-based, murine. On the procedure:
To screen compounds with an inhibitory effect on Id1 and Id3 expression, cells were simultaneously stimulated with BMP4 (10 ng/ml, 315-27, Peprotech) and substances at the indicated concentrations for 24 h. DMSO served as a solvent control. Effects on Id1 and Id3 expression levels were analysed by Western blotting.
as §3
B16-F10 and Ret melanoma cells were treated with BMP4 to induce Id1 and Id3 expression, and simultaneously treated with each of the compounds individually for a 24 h period.

For data set [9], the system named is Id3. In words: Id3 expression in LECs, Western blot. The settings on record: indicated concentrations, 24 hours (FIG. 10B). In kind it is cell-based. How it is done: as §2, §3, §4

In the case of `CCCCc1cc2c(O)cc(C3(CCCC)CCCCC3)cc2oc1=O` [X6632, 7-(1-Butylcyclohexyl)-5-hydroxy-3-butyl-2H-chromen-2-one], the “Proliferation of HUVECs” value in data set [1] is given as “inhibited”. In addition, the “Expression of Id1 protein” value in data set [2] (HUVECs, indicated concentrations, 24 hours (FIG. 10B)) was “inhibits”; in [4], “inhibits”. Moreover, the Id1 protein expression entry in [2] (proliferating HUVECs, 24 hours (FIG. 10A)) was “completely abrogated”. Further, the “3D assays could not be performed with daily application, reason” value in data set [3] is reported as “cytotoxicity”. Moreover, the “Proliferation of LECs” value in [5] was “inhibited”. The “Proliferation / cytotoxicity, melanoma cells” value in data set [6] is “strongly inhibited”. Also, the “Melanoma growth and initiation” value in data set [7] (B16-F10 cells co-injected with Matrigel, syngeneic mice, daily i.p. first 14 days, compared to DMSO) was “significantly inhibit; also recorded: potent inhibitors”. In addition, in data set [7] (B16-F10 cells, 8 mice per group, assessed over 90 days), the “Number of animals with tumors” value was “three”. The “Tumor growth and initiation compared to CBD” value in data set [7] (B16-F10 experiment, daily i.p. first 14 days) is on record as “significantly more effective”. In addition, the results for the “Inhibitory effect on Id3 protein expression” value in [8] and in [8] (listed as X 6632) were “more potent” and “strongest inhibitory activities”, respectively. Also, the “Expression of Id3 protein” value in data set [9] is on record as “inhibits”.
